From ChEMBL document CHEMBL4417632, “Inhibitors of alpha-amino-beta-carboxymuconic acid semialdehyde decarboxylase” (2017)
Calls of active or inactive are those of the source. The calls are words filed in the database; no cut-off is given here.

How the values were obtained:
[1] = molecular target: 2-amino-3-carboxymuconate-6-semialdehyde decarboxylase (Mus musculus) (UniProt Q8R519); assay: Inhibition of ACMSD in mouse AML12 cells assessed as increase in Sod2 mRNA expression incubated for 24 hrs by RT-qPCR analysis; type: cell-based
Chain of 2-amino-3-carboxymuconate-6-semialdehyde decarboxylase (Mus musculus) (Q8R519 whole entry): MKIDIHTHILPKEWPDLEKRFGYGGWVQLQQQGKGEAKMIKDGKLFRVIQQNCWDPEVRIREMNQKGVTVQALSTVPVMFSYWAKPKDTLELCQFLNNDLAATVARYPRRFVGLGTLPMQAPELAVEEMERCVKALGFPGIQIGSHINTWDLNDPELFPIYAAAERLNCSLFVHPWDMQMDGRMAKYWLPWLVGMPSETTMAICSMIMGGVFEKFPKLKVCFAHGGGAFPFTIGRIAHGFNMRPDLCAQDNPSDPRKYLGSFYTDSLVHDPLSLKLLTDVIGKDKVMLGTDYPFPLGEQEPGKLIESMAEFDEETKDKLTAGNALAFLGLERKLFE

[2] = Cytotoxicity in mouse AML-12 cells assessed as reduction inc ell viability at 10 nM to 300 uM incubated for 4 hrs by LDH release assay; type: cell-based
[3] = molecular target: 2-amino-3-carboxymuconate-6-semialdehyde decarboxylase (Mus musculus) (UniProt Q8R519); assay: Inhibition of ACMSD in mouse AML12 cells assessed as reduction in FoxO1 phosphorylation at Ser256 residue incubated for 24 hrs; type: cell-based
[4] = molecular target: 2-amino-3-carboxymuconate-6-semialdehyde decarboxylase (Homo sapiens) (UniProt Q8TDX5); assay: Inhibition of ACMSD in human primary hepatocytes assessed as increase in NAD concentration at 0.5 uM following compound replacement every 24 hrs by LC-MS/MS analysis; type: cell-based
Chain of 2-amino-3-carboxymuconate-6-semialdehyde decarboxylase (Homo sapiens) (Q8TDX5 whole entry, looked up): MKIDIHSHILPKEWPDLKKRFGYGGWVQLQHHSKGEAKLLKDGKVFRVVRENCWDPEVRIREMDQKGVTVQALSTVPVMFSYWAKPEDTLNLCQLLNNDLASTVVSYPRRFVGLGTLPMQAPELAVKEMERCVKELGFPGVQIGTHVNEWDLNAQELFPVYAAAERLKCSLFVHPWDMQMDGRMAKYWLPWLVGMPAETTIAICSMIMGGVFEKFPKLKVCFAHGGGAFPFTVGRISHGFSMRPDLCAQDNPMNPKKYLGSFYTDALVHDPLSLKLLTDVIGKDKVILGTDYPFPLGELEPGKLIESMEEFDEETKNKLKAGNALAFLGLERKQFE

[5] = molecular target: 2-amino-3-carboxymuconate-6-semialdehyde decarboxylase (Mus musculus) (UniProt Q8R519); assay: Inhibition of ACMSD in C57BL/6J mouse primary hepatocytes assessed as induction of SOD2 activity incubated for 24 hrs; type: cell-based
[6] = system: HepG2; assay: Cytotoxicity against human HepG2 cells assessed as reduction in cell viability at 0.01 to 300 uM incubated for 4 hrs by LDH release assay; type: cell-based; conditions: hepg2, 4 h
[7] = molecular target: 2-amino-3-carboxymuconate-6-semialdehyde decarboxylase (Mus musculus) (UniProt Q8R519); assay: Inhibition of ACMSD in mouse AML12 cells assessed as induction of SOD2 activity incubated for 24 hrs; type: cell-based
[8] = molecular target: 2-amino-3-carboxymuconate-6-semialdehyde decarboxylase (Homo sapiens) (UniProt Q8TDX5); assay: Inhibition of ACMSD in human primary hepatocytes assessed as increase in NAD concentration at 5 uM following compound replacement every 24 hrs by LC-MS/MS analysis; type: cell-based
[9] = molecular target: 2-amino-3-carboxymuconate-6-semialdehyde decarboxylase (Mus musculus) (UniProt Q8R519); assay: Inhibition of ACMSD in C57BL/6J mouse primary hepatocytes assessed as increase in Pgc1a mRNA expression incubated for 24 hrs by RT-qPCR analysis; type: cell-based
[10] = molecular target: 2-amino-3-carboxymuconate-6-semialdehyde decarboxylase (Mus musculus) (UniProt Q8R519); assay: Inhibition of ACMSD in C57BL/6J mouse primary hepatocytes assessed as increase in Sod1 mRNA expression incubated for 24 hrs by RT-qPCR analysis; type: cell-based
[11] = molecular target: 2-amino-3-carboxymuconate-6-semialdehyde decarboxylase (Mus musculus) (UniProt Q8R519); assay: Inhibition of ACMSD in C57BL/6J mouse primary hepatocytes assessed as increase in Sod2 mRNA expression incubated for 24 hrs by RT-qPCR analysis; type: cell-based
[12] = molecular target: 2-amino-3-carboxymuconate-6-semialdehyde decarboxylase (Homo sapiens) (UniProt Q8TDX5); assay: Inhibition of ACMSD in human primary hepatocytes assessed as increase in NAD\"\" concentration following compound replacement every 24 hrs by LC-MS/MS analysis relative to control; type: cell-based
[13] = molecular target: 2-amino-3-carboxymuconate-6-semialdehyde decarboxylase (Homo sapiens) (UniProt Q8TDX5); assay: Inhibition of ACMSD in human primary hepatocytes assessed as increase in NAD concentration at 250 uM following compound replacement every 24 hrs by LC-MS/MS analysis; type: cell-based
[14] = system: MDCK; assay: Inhibition of cisplatin-induced apoptosis in MDCK cells assessed as reduction in caspase 3/7 activity at 100 uM pre-incubated for 1 hr before cisplatin challenge for 16 hrs by luminescence based assay; type: functional, cell-based; conditions: Canis lupus familiaris
[15] = system: MDCK; assay: Inhibition of cisplatin-induced apoptosis in MDCK cells assessed as reduction in caspase 3/7 activity at 100 uM pre-incubated for 1 hr before cisplatin challenge for 16 hrs by luminescence based assay relative to control; type: functional; conditions: Canis lupus familiaris
[16] = system: MDCK; assay: Inhibition of cisplatin-induced apoptosis in MDCK cells assessed as reduction in caspase 3/7 activity at 30 to 125 uM pre-incubated for 1 hr before cisplatin challenge for 16 hrs by luminescence based assay; type: functional, cell-based; conditions: Canis lupus familiaris
[17] = system: MDCK; assay: Inhibition of cisplatin-induced apoptosis in MDCK cells assessed as reduction in caspase 3/7 activity at 30 uM pre-incubated for 1 hr before cisplatin challenge for 16 hrs by luminescence based assay relative to control; type: functional; conditions: Canis lupus familiaris

With `N#Cc1c(-c2ccccc2)nc(SCc2cccc(C(=O)O)c2)[nH]c1=O` the inhibition [1] was “Dose-dependent effect”, the Activity [2] was “Non-Toxic” and the inhibition [3] was “Dose-dependent effect”. The inhibition [4] was “Active”, the inhibition [5] was “Dose-dependent effect” and the Activity [6] was “Non-Toxic”. For the same compound, the inhibition [7] was “Dose-dependent effect”.
In the case of `N#Cc1c(-c2cccs2)nc(SCc2cccc(-c3noc(=O)[nH]3)c2)[nH]c1=O`, the Activity [2] was “Non-Toxic” and the Activity [6] was “Non-Toxic”.
With `N#Cc1c(-c2cccs2)nc(SCc2cccc(C(=O)O)c2)[nH]c1=O` the inhibition [8] was “Active”, the Activity [2] was “Non-Toxic” and the inhibition [4] was “Active”. For the same compound, the Activity [6] was “Non-Toxic”.
In the case of `O=C(O)c1cccc(CSc2nc(-c3ccccc3)c(Br)c(=O)[nH]2)c1`, the Activity [2] was “Non-Toxic” and the Activity [6] was “Non-Toxic”.
In the case of `N#Cc1c(-c2cccs2)nc(SCc2cccc(-c3nnn[nH]3)c2)[nH]c1=O`, the inhibition [9] was “Dose-dependent effect”, the inhibition [3] was “Dose-dependent effect” and the inhibition [10] was “inactive”. For the same compound, the inhibition [11] was “Dose-dependent effect”, the inhibition [12] was “Dose-dependent effect” and the inhibition [5] was “Dose-dependent effect”. The inhibition [7] was “Dose-dependent effect”.
In the case of `N#Cc1c(-c2cccs2)nc(SCc2cccc(-c3nn[nH]n3)c2)[nH]c1=O`, the Activity [2] was “Non-Toxic” and the Activity [6] was “Non-Toxic”.
For `N#Cc1c(-c2nccs2)nc(SCc2cccc(C(=O)O)c2)[nH]c1=O`, the Activity [2] was “Non-Toxic” and the Activity [6] was “Non-Toxic”.
For `CCCCC(CC)COC(=O)c1ccccc1C(=O)O` (stereo not drawn), the inhibition [13] was “Active”.
For `N#Cc1c(-c2ccc(Cl)cc2)nc(SCc2ccc(C(=O)O)cc2)[nH]c1=O`, the Activity [2] was “Non-Toxic” and the Activity [6] was “Non-Toxic”.
With `N#Cc1c(-c2cccs2)nc(SCc2cccc(CC(=O)O)c2)[nH]c1=O` the inhibition [14] was “Active”, the inhibition at 100 µM [15] was 75% and the inhibition [16] was “Active”. The inhibition at 30 µM [17] was 29%.
